Reference: patent US9126948B2, “Pyrimidine-4,6-diamine derivatives as PI3K inhibitors” (Incyte Holdings Corporation, priority 2011, dated 2015)
Counter-ions that a name gives are not always drawn.

Tests used:
PI3Kδ (p110δ/p85α) = PI3Kδ (p110δ/p85α) (Homo sapiens (Human), UniProt O00329); assay: PI3Kδ Scintillation Proximity Assay; type: biochemical; conditions: 20 μM PIP2, 20 μM ATP, 4 nM PI3Kδ, 210 min; read-out: PI3Kδ SPA IC50
Description: [γ-^33P]ATP (10 mCi/mL) was purchased from Perkin-Elmer (Waltham, Mass.). Lipid kinase substrate, D-myo-Phosphatidylinositol 4,5-bisphosphate (PtdIns(4,5)P2)D(+)-sn-1,2-di-O-octanoylglyceryl, 3-O-phospho linked (PIP2), CAS 204858-53-7, was purchased from Echelon Biosciences (Salt Lake City, Utah). PI3Kδ (p110δ/p85α) was purchased from Millipore (Bedford, Mass.). ATP, MgCl2, DTT, EDTA, MOPS and CHAPS were purchased from Sigma-Aldrich (St. Louis, Mo.). Wheat Germ Agglutinin (WGA) YSi SPA Scintillation Beads was purchased from GE healthcare life sciences (Piscataway, N.J.).
The kinase reaction was conducted in polystyrene 384-well matrix white plate from Thermo Fisher Scientific in a final volume of 25 μL. Inhibitors were first diluted serially in DMSO and added to the plate wells before the addition of other reaction components. The final concentration of DMSO in the assay was 0.5%. The PI3K assays were carried out at room temperature in 20 mM MOPS, pH 6.7, 10 mM MgCl2, 5 mM DTT and CHAPS 0.03%. Reactions were initiated by the addition of ATP, the final reaction mixture consisted of 20 μM PIP2, 20 μM ATP, 0.2 μCi [γ-^33P]ATP, 4 nM PI3Kδ. Reactions were incubated for 210 min and terminated by the addition of 40 μL SPA beads suspended in quench buffer: 150 mM potassium phosphate pH 8.0, 20% glycerol. 25 mM EDTA, 400 μM ATP. The final concentration of SPA beads was 1.0 mg/mL. After the plate sealing, plates were shaken overnight at room temperature and centrifuged at 1800 rpm for 10 minutes, the radioactivity of the product was determined by scintillation counting on Topcount (Perkin-Elmer). IC50 determination was performed by fitting the curve of percent control activity versus the log of the inhibitor concentration using the GraphPad Prism 3.0 software.

[1] = tested on: Pfeiffer cell line (diffuse large B cell lymphoma); assay: Pfeiffer Cell Proliferation Assay; type: cell-based; conditions: Homo sapiens, [3H]-thymidine incorporation after 3-4 days
Description: Pfeiffer cell line (diffuse large B cell lymphoma) was purchased from ATCC (Manassas, Va.) and maintained in the culture medium recommended (RPMI and 10% FBS). To measure the anti-proliferation activity of the compounds, the Pfeiffer cells were plated with the culture medium (2×10^3 cells/well/[…]) into 96-well ultra-low binding plates (Corning, Corning, N.Y.), in the presence or absence of a concentration range of test compounds. After 3-4 days, [^3H]-thymidine (1 μCi/well) (PerkinElmer, Boston, Mass.) in PBS was then added to the cell culture for an additional 12 hours before the incorporated radioactivity was separated by filtration with water through GF/B filters (Packard Bioscience, Meridenj, Conn.) and measured by liquid scintillation counting with a TopCount (Packard Bioscience). Pfeiffer cell proliferation data for certain compounds described herein is provided below in Table 8.

PI3Kδ (p110δ/p85α), sequence (O00329 whole entry, species assumed): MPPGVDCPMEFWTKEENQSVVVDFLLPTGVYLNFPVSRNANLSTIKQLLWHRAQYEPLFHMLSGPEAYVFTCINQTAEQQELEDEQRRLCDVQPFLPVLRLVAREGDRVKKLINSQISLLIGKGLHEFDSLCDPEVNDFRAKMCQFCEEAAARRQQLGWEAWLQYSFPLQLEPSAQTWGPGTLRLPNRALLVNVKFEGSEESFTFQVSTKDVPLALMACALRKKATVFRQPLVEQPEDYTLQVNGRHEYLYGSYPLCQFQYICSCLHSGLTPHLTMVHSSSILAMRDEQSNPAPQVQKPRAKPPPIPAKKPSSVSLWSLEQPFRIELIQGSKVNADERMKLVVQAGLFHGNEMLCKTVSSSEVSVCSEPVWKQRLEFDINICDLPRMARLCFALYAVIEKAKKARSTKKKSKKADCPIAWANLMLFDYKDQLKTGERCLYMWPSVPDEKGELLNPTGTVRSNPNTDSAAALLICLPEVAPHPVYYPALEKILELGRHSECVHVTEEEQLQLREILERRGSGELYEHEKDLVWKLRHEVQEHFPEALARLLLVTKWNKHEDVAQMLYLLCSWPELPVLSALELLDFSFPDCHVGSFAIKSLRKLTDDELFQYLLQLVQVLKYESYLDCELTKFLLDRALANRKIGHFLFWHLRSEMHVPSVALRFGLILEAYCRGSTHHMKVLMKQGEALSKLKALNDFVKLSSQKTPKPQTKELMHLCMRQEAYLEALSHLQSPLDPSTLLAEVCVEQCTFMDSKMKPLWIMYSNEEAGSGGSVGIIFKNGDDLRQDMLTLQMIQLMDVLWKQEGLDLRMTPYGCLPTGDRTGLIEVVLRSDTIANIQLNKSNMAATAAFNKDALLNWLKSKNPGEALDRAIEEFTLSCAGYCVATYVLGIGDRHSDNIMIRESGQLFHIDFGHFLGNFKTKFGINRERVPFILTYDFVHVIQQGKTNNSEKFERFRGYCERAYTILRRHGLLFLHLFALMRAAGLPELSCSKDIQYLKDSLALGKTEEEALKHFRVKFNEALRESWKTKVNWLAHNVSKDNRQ
PI3Kδ (p110δ/p85α), sequence (P27986 whole entry partner, species assumed): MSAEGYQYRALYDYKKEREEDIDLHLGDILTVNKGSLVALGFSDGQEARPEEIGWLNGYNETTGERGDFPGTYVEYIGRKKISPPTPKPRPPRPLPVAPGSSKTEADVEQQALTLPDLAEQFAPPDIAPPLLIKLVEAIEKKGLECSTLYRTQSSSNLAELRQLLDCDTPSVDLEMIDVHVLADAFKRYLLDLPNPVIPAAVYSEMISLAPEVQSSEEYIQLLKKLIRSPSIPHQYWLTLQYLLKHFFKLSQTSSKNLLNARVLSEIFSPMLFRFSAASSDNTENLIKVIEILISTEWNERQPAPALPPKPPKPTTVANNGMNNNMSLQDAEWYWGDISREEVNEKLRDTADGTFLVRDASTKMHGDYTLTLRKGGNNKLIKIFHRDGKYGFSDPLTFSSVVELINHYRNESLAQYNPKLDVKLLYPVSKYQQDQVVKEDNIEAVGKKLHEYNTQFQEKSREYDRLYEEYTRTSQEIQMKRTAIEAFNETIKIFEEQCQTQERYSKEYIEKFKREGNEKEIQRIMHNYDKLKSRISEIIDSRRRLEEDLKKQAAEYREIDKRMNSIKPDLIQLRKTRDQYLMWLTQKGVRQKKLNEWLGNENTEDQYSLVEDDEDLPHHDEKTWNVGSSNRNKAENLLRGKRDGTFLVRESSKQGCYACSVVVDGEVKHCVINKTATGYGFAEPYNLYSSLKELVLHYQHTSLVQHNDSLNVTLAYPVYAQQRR

Structure (SMILES) | IC50 (PI3Kδ (p110δ/p85α)) [nM] | IC50 [1] [nM]
COc1c(C(C)Nc2ncnc(N)c2C#N)cc(Cl)c(C)c1-c1cncc(C(=O)N2CCOCC2)c1 (stereo not shown) [Example 5, 4-amino-6-[(1-{5-chloro-2-methoxy-4-methyl-3-[5-(morpholin-4-ylcarbonyl)pyridin-3-yl]phenyl}ethyl)-amino]pyrimidine-5-carbonitrile] | < 20 | < 20
COc1c(C(C)Nc2ncnc(N)c2C#N)cc(Cl)c(F)c1-c1cnc(N)nc1 (stereo not shown) [Example 10, 4-amino-6-({1-[3-(2-aminopyrimidin-5-yl)-5-chloro-4-fluoro-2-methoxyphenyl]-ethyl}amino)pyrimidine-5-carbonitrile] | < 20 | < 20
COc1c(C(C)Nc2ncnc(N)c2C#N)cc(Cl)c(C)c1-c1cncc(C#N)c1 (stereo not shown) [Example 2, 4-amino-6-({1-[5-chloro-3-(5-cyano-pyridin-3-yl)-2-methoxy-4-methylphenyl]ethyl}amino)-pyrimidine-5-carbonitrile] | < 20 | < 20
COc1c(C(C)Nc2ncnc(N)c2C#N)cc(Cl)c(Cl)c1-c1cnc(N)nc1 (stereo not shown) [Example 14, 4-Amino-6-({1-[3-(2-aminopyrimidin-5-yl)-4,5-dichloro-2-methoxy-phenyl]ethyl}amino)pyrimidine-5-carbonitrile] | < 20 | < 20
COc1c(C(C)Nc2ncnc(N)c2C#N)cc(Cl)c(Cl)c1-c1cncc(F)c1 (stereo not shown) [Example 12, 4-Amino-6-({1-[4,5-dichloro-3-(5-fluoropyridin-3-yl)-2-methoxyphenyl]ethyl}amino) pyrimidine-5-carbonitrile] | < 20 | < 20
COc1c(C(C)Nc2ncnc(N)c2C#N)cc(Cl)c(F)c1-c1cncc(C#N)c1 (stereo not shown) [Example 6, 4-Amino-6-({1-[5-chloro-3-(5-cyanopyridin-3-yl)-4-fluoro-2-methoxyphenyl]ethyl}-amino)pyrimidine-5-carbonitrile] | < 20 | < 20
COc1c(C(C)Nc2ncnc(N)c2C#N)cc(Cl)c(C)c1-c1cnc(N)nc1 (stereo not shown) [Example 3, 4-amino-6-({1-[3-(2-aminopyrimidin-5-yl)-5-chloro-2-methoxy-4-methyl-phenyl]ethyl}-amino)pyrimidine-5-carbonitrile] | < 20 | < 20

More lines, now with the values ahead:

IC50 (PI3Kδ (p110δ/p85α)) [nM] | IC50 [1] [nM] | Structure (SMILES)
< 20 |  | COc1c(C(C)Nc2ncnc(N)c2C#N)cc(Cl)c(Cl)c1-c1ccc(S(C)(=O)=O)cc1 (stereo not shown) [Example 13, 4-Amino-6-({1-[5,6-dichloro-2-methoxy-4′-(methylsulfonyl)biphenyl-3-yl]ethyl}amino) pyrimidine-5-carbonitrile]
< 20 | < 20 | COc1c(C(C)Nc2ncnc(N)c2C#N)cc(Cl)c(Cl)c1-c1cncc(S(C)(=O)=O)c1 (stereo not shown) [Example 11, 4-Amino-6-[(1-{4,5-dichloro-2-methoxy-3-[5-(methylsulfonyl)pyridin-3-yl]phenyl}ethyl)amino]pyrimidine-5-carbonitrile]
< 20 | < 20 | COc1c(C(C)Nc2ncnc(N)c2C#N)cc(Cl)c(F)c1-c1cncc(F)c1 (stereo not shown) [Example 7, 4-amino-6-({1-[5-chloro-4-fluoro-3-(5-fluoropyridin-3-yl)-2-methoxyphenyl]ethyl}-amino) pyrimidine-5-carbonitrile]
< 20 | < 20 | COc1c(C(C)Nc2ncnc(N)c2C#N)cc(Cl)c(F)c1-c1cncc(S(C)(=O)=O)c1 (stereo not shown) [Example 8, 4-amino-6-[(1-{5-chloro-4-fluoro-2-methoxy-3-[5-(methyl-sulfonyl)pyridin-3-yl]phenyl}ethyl)amino]-pyrimidine-5-carbonitrile bis(trifluoroacetate)]
 | < 20 | COc1c(C(C)Nc2ncnc(N)c2C#N)cc(Cl)c(C)c1-c1cncc(S(C)(=O)=O)c1 (stereo not shown) [Example 1, 4-Amino-6-[(1-{5-chloro-2-methoxy-4-methyl-3-[5-(methylsulfonyl)pyridin-3-yl]phenyl}ethyl)amino]pyrimidine-5-carbonitrile trifluoroacetic acid salt]
< 20 | < 20 | COc1c(C(C)Nc2ncnc(N)c2C#N)cc(Cl)c(C)c1-c1ccc(S(C)(=O)=O)cc1 (stereo not shown) [Example 4, 4-amino-6-({1-[5-chloro-2-methoxy-6-methyl-4′-(methyl-sulfonyl)biphenyl-3-yl]ethyl}amino) pyrimidine-5-carbonitrile]
< 20 |  | COc1c(C(C)Nc2ncnc(N)c2C#N)cc(Cl)c(F)c1-c1ccc(S(C)(=O)=O)cc1 (stereo not shown) [Example 9, 4-amino-6-({1-[5-chloro-6-fluoro-2-methoxy-4′-(methylsulfonyl)biphenyl-3-yl]ethyl}amino) pyrimidine-5-carbonitrile]
